IC50 data for 33 compounds are collected here from US9284283B2, “Macrocyclic compounds for modulating IL-17” (ENSEMBLE THERAPEUTICS CORPORATION, priority 2012, dated 2016).

Each structure is given as a SMILES string.

In assay [1] the target is T1, recombinant human IL17a (binding to its receptor IL17R) (Homo sapiens, UniProt Q16552).
T1 construct: purchased R&D Systems 317-ILB (IL17a); 177-IR (IL17R/Fc)
T1 sequence (Q16552 20-155 limits assumed): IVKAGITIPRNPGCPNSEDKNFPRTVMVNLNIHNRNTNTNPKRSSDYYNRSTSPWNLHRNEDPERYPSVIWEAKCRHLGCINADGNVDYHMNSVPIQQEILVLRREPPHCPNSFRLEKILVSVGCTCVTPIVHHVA
The assay is described as follows: IL-17 competition ELISA I (IL17a coated, IL17R/Fc binding). The essentials: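 Plates coated with 20 nM recombinant human IL17a received compound dilutions and 12 nM IL17R/Fc (final) for 30 min at room temperature. Bound receptor was detected with HRP anti-human Fc and TMB, read at 450 nm. IC50 came from a 4-parameter logistic fit between no-competitor and blank controls.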
A general note: In an ELISA, binding on a coated surface is turned into a signal by an enzyme label.

Assay [2] concerns IL-17A induced secretion of IL-6 in primary human RASF cells. The assay is described as follows: Inhibition of IL17A induced secretion of IL6 in human rheumatoid arthritis synovial fibroblast (RASF) cells. In kind it is cell-based. Conditions: Homo sapiens, Fibroblast. The method in brief: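 Primary RASF cells (passage 2-8) stimulated 20 h at 37 °C with rhIL-17A (30 ng/mL) pre-incubated 1 h with compound (final 0.03-25 μM, 0.25% DMSO). Supernatant IL-6 measured by ELISA, normalized to WST1 viability; triplicates.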

Assay [3] addresses T2, biotinylated human IL-17 (binding to IL17R/Fc) (Homo sapiens, UniProt Q16552).
T2 construct: purchased R&D Systems 317-ILB (IL-17, biotinylated); 177-IR (IL17R/Fc)
T2 sequence (Q16552 20-155 limits assumed): T1 sequence (Q16552 20-155 limits assumed)
Nature of the assay: IL-17 competition ELISA II (captured IL17R/Fc, biotinylated IL-17). The essentials:
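Competition read-out: absorbance at 450 nm after streptavidin-HRP/TMB detection, fitted to a 4-parameter logistic model bounded by no-competitor and blank wells to give IC50. Compound was serially diluted 5-fold from 1 μM alongside 20 nM (stock) biotinylated IL-17 on IL17R/Fc (10 nM) captured via goat anti-human IgG, 30 min at room temperature.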

As to `C[C@H]1NC(=O)[C@@H](Cc2ccc(NC(=O)[C@@H](NC(=O)Cc3ccccc3)C3CCCCC3)cc2)NC(=O)CC2(CCCC2)CC(=O)NCCCCCNC1=O` [Compound 342], the IC50 was 100 to 1000 nM in assay [1], 100 to 1000 nM in assay [2] and under 100 nM in assay [3].

`C[C@H]1NC(=O)[C@@H](Cc2ccc(NC(=O)[C@H](Cc3ccccc3Cl)NC(=O)Cc3ccccc3)cc2)NC(=O)CC2(CCCC2)CC(=O)NCCCCCNC1=O` [Compound 288]: the IC50 in assay [1], in assay [2] and in assay [3] was under 100 nM in each case.

In the case of `O=C1CNC(=O)[C@@H](Cc2ccc(NC(=O)[C@H](Cc3ccccc3Cl)NC(=O)CC3CCCCC3)cc2)NC(=O)CC2(CCCC2)CC(=O)NCCCCCN1` [Compound 236], the 50% inhibitory concentration (IC50) is under 100 nM in assay [1] and 1000 to 10000 nM in assay [2].

For `C[C@H]1NC(=O)[C@@H](Cc2ccc(NC(=O)[C@@H](NC(=O)c3cccnc3)C3CCCCC3)cc2)NC(=O)CC2(CCCC2)CC(=O)NCCCCCNC1=O` [Compound 361], the IC50 was 100 to 1000 nM in assay [1], 1000 to 10000 nM in assay [2] and under 100 nM in assay [3].

As to `O=C1CNC(=O)[C@@H](Cc2ccc(NC(=O)[C@H](CC3CCCCC3)NC(=O)Cc3ccccc3)cc2)NC(=O)CC2(CCCC2)CC(=O)NCCCCCN1` [Compound 293], the results for the IC50 in assay [1], in assay [2] and in assay [3] were 100 to 1000 nM, 1000 to 10000 nM and under 100 nM, respectively.

`O=C1CNC(=O)[C@@H](Cc2ccc(NC(=O)[C@@H](NC(=O)Cc3cccc(O)c3)C3CCCCC3)cc2)NC(=O)CC2(CCCC2)CC(=O)NCCCCCN1` [Compound 378]: the IC50 in assay [1] was 100 to 1000 nM; in assay [2], 100 to 1000 nM; in assay [3], under 100 nM.

`CC1(C)CC(=O)NCCCCCNC(=O)CNC(=O)[C@@H](Cc2ccc(NC(=O)[C@@H](NC(=O)c3cccnc3)C3CCCCC3)cc2)NC(=O)C1` [Compound 254]: the IC50 in assay [1] is 1000 to 10000 nM; in assay [2], over 10000 nM.

`CN1CCCCCNC(=O)CNC(=O)[C@@H](Cc2ccc(NC(=O)[C@@H](NC(=O)Cc3ccccc3)C3CCCCC3)cc2)NC(=O)CC2(CCCC2)CC1=O` [Compound 332]: the IC50 in assay [1] was 100 to 1000 nM; in assay [2], 1000 to 10000 nM; in assay [3], under 100 nM.

As for `O=C1CC2(CCCC2)CC(=O)N[C@H](Cc2ccc(NC(=O)[C@@H](NC(=O)Cc3ccc(CO)cc3)C3CCCCC3)cc2)C(=O)N[C@H](Cc2ccccc2)C(=O)NCCCCCN1` [Compound 336], the IC50 was 100 to 1000 nM in assay [1], 100 to 1000 nM in assay [2] and under 100 nM in assay [3].

Regarding `C[C@H]1NC(=O)[C@@H](Cc2ccc(NC(=O)[C@H](Cc3ccccc3Cl)NC(=O)Cc3ccccc3)cc2)NC(=O)CC2(CCCC2)CC(=O)N[C@H](C(=O)O)CCCCNC1=O` [Compound 367], the IC50 in assay [1], in assay [2] and in assay [3] was under 100 nM in each case.

On to `NC(=O)CC[C@H]1NC(=O)[C@@H](Cc2ccc(NC(=O)[C@H](Cc3ccccc3Cl)NC(=O)Cc3ccccc3)cc2)NC(=O)CC2(CCCC2)CC(=O)NCCCCCNC1=O` [Compound 341], for which the IC50 in assay [1], in assay [2] and in assay [3] was under 100 nM throughout.

For the compound `CNC(=O)N[C@@H](Cc1ccccc1Cl)C(=O)Nc1ccc(C[C@H]2NC(=O)CC3(CCCC3)CC(=O)NCCCCCNC(=O)CNC2=O)cc1` [Compound 273], the IC50 is 100 to 1000 nM in assay [1], 1000 to 10000 nM in assay [2] and under 100 nM in assay [3].

For the compound `O=C1CNC(=O)[C@@H](Cc2ccc(NC(=O)[C@H](Cc3ccccc3Cl)NC(=O)Cc3ccccc3)cc2)NC(=O)CC2(CCCC2)CC(=O)NCCNCCN1` [Compound 338], the IC50 was 100 to 1000 nM in assay [1], over 10000 nM in assay [2] and under 100 nM in assay [3].

Take `C[C@H]1NC(=O)[C@@H](Cc2ccc(NC(=O)[C@@H](NC(=O)Cc3ccccc3)C3CCCCC3)cc2)NC(=O)CC2(CCCC2)CC(=O)N[C@H](C(=O)O)CCCCNC1=O` [Compound 369]: the IC50 in assay [1], in assay [2] and in assay [3] was under 100 nM throughout.

Regarding `CN1CCNC(=O)CNC(=O)[C@@H](Cc2ccc(NC(=O)[C@H](Cc3ccccc3Cl)NC(=O)Cc3ccc(O)cc3)cc2)NC(=O)CC2(CCCC2)CC(=O)NCC1` [Compound 260], the IC50 in assay [1] is under 100 nM; in assay [2] it was 1000 to 10000 nM.

For `O=C1CNC(=O)[C@@H](Cc2ccc(NC(=O)[C@H](Cc3ccccc3Cl)NC(=O)NCc3ccccc3)cc2)NC(=O)CC2(CCCC2)CC(=O)NCCCCCN1` [Compound 302], the results for the IC50 in assay [1], in assay [2] and in assay [3] were under 100 nM, 100 to 1000 nM and under 100 nM, respectively.

On to `CN(C)C(=O)N[C@@H](Cc1ccccc1Cl)C(=O)Nc1ccc(C[C@H]2NC(=O)CC3(CCCC3)CC(=O)NCCCCCNC(=O)CNC2=O)cc1` [Compound 274], for which the IC50 in assay [1] was under 100 nM; in assay [2] it was 100 to 1000 nM; in assay [3], under 100 nM.

`CC1(C)CC(=O)NCCCCCNC(=O)CNC(=O)[C@@H](Cc2ccc(NC(=O)[C@@H](NC(=O)Cc3ccccc3)C3CCCCC3)cc2)NC(=O)C1` [Compound 251]: the IC50 in assay [1] lay within 100 to 1000 nM; in assay [2] it was 1000 to 10000 nM.

Turning to `O=C1CC2(CCCC2)CC(=O)N[C@H](Cc2ccc(NC(=O)[C@H](Cc3ccccc3Cl)NC(=O)Cc3ccccc3)cc2)C(=O)N[C@H](CO)C(=O)NCCCCCN1` [Compound 340], the half-inhibitory concentration (IC50) in assay [1] is under 100 nM; in assay [2], 100 to 1000 nM; in assay [3], under 100 nM.

Turning to `CC(=O)N[C@@H](Cc1ccccc1Cl)C(=O)Nc1ccc(C[C@H]2NC(=O)CC3(CCCC3)CC(=O)N[C@H](C(=O)O)CCCCNC(=O)CNC2=O)cc1` [Compound 264], the results for the IC50 in assay [1], in assay [2] and in assay [3] were under 100 nM, 100 to 1000 nM and under 100 nM, respectively.

For the compound `CC1(C)CC(=O)NCCCCCNC(=O)CNC(=O)[C@@H](Cc2ccc(NC(=O)[C@@H](NC(=O)Cc3ccc(O)cc3)C3CCCCC3)cc2)NC(=O)C1` [Compound 253], the concentration for half-maximal inhibition (IC50) in assay [1] was 100 to 1000 nM; in assay [2], 1000 to 10000 nM.

In the case of `O=C1CC2(CCCC2)CC(=O)N[C@H](Cc2ccc(NC(=O)[C@H](Cc3ccccc3Cl)NC(=O)Cc3ccccc3)cc2)C(=O)N[C@H](Cc2ccccc2)C(=O)NCCCCCN1` [Compound 261], the results for the IC50 in assay [1] and in assay [2] were under 100 nM and 1000 to 10000 nM, respectively.

Regarding `COC(=O)[C@@H]1CCCCNC(=O)CNC(=O)[C@@H](Cc2ccc(NC(=O)[C@@H](NC(=O)c3cccnc3)C3CCCCC3)cc2)NC(=O)CC2(CCCC2)CC(=O)N1` [Compound 352], the IC50 in assay [1] is 1000 to 10000 nM; in assay [2], over 10000 nM.

Consider `Cc1ccccc1C[C@H](NC(=O)Cc1ccc(F)cc1)C(=O)Nc1ccc(C[C@H]2NC(=O)CC3(CCCC3)CC(=O)NCCCCCNC(=O)[C@@H](CCC(N)=O)NC2=O)cc1` [Compound 515], for which the IC50 in assay [2] and in assay [3] was under 100 nM each time.

In the case of `O=C1CC2(CCCC2)CC(=O)N[C@H](Cc2ccc(NC(=O)[C@H](Cc3ccccc3Cl)NC(=O)Cc3ccc(O)cc3)cc2)C(=O)NCCCCCCCCN1` [Compound 263], the half-maximal inhibitory concentration (IC50) was under 100 nM in assay [1] and 1000 to 10000 nM in assay [2].

Turning to `Cc1ccc(CC(=O)N[C@@H](Cc2ccccc2Cl)C(=O)Nc2ccc(C[C@H]3NC(=O)CC4(CCCC4)CC(=O)NCCOCCOCCNC3=O)cc2)cc1` [Compound 494], the IC50 in assay [2] was 100 to 1000 nM; in assay [3] it was under 100 nM.

Regarding `O=C1CNC(=O)[C@@H](Cc2ccc(NC(=O)[C@H](Cc3ccc(F)cc3Cl)NC(=O)Cc3ccc(F)cc3)cc2)NC(=O)CC2(CCCC2)CC(=O)NCCCCCN1` [Compound 388], the concentration for half-maximal inhibition (IC50) in assay [2] and in assay [3] was under 100 nM throughout.

With `CN1CCOCCOCCNC(=O)[C@@H](Cc2ccc(NC(=O)[C@H](Cc3ccccc3Cl)NC(=O)Cc3ccc(N(C)C)cc3)cc2)NC(=O)CC2(CCCC2)CC1=O` [Compound 582], the IC50 in assay [2] is 1000 to 10000 nM; in assay [3], under 100 nM.

Turning to `O=C1CNC(=O)[C@@H](Cc2ccc(NC(=O)[C@H](Cc3ccc(F)cc3Cl)NC(=O)Cc3ccccc3)cc2)NC(=O)CC2(CCCC2)CC(=O)NCCCCCN1` [Compound 386], the results for the IC50 in assay [2] and in assay [3] were 1000 to 10000 nM and under 100 nM, respectively.

Take `C[C@H]1NC(=O)[C@@H](Cc2ccc(NC(=O)[C@H](Cc3ccccc3Cl)NC(=O)Cc3ccccc3)cc2)NC(=O)CC2(CCCC2)CC(=O)NCCNCCNC1=O` [Compound 443]: the values for the IC50 in assay [2] and in assay [3] were 100 to 1000 nM and under 100 nM, respectively.

As for `C[C@H]1NC(=O)[C@@H](Cc2ccc(NC(=O)[C@H](Cc3ccccc3Cl)NC(=O)C(F)(F)c3ccc(F)cc3)cc2)NC(=O)CC2(CCCC2)CC(=O)NCCCCCNC1=O` [Compound 560], the IC50 in assay [2] and in assay [3] was under 100 nM in each case.

`C[C@H]1NC(=O)[C@@H](Cc2ccc(NC(=O)[C@H](Cc3ccccc3Cl)NC(=O)Cc3ccc(CO)cc3)cc2)NC(=O)CC2(CCCC2)CC(=O)NCCCCCNC1=O` [Compound 487]: the IC50 in assay [2] and in assay [3] was under 100 nM in each case.

For `CN1CCCCCNC(=O)[C@@H](CCC(=O)O)NC(=O)[C@@H](Cc2ccc(NC(=O)[C@H](Cc3ccccc3Cl)NC(=O)Cc3cccc(O)c3)cc2)NC(=O)CC2(CCCC2)CC1=O` [Compound 473], the half-maximal inhibitory concentration (IC50) was 100 to 1000 nM in assay [2] and under 100 nM in assay [3].

What is called IC50 is the point on the concentration scale where inhibition reaches its midpoint.
